How the values were obtained:
rat mAChR M4 = biological target: T1, rat mAChR M4 (Rattus norvegicus, UniProt P08485); experiment: mAChR M4 cell-based functional assay (calcium mobilization, EC80 acetylcholine), rat M4; details: Table 10; for IC50: M4/Gqi5/CHO-K1 cells, decrease of EC80 acetylcholine response
T1 construct: expressed in transfected cells; host or cells: CHO-K1 (ATCC), stably co-expressing chimeric G protein Gqi5
T1 sequence (P08485 1-478): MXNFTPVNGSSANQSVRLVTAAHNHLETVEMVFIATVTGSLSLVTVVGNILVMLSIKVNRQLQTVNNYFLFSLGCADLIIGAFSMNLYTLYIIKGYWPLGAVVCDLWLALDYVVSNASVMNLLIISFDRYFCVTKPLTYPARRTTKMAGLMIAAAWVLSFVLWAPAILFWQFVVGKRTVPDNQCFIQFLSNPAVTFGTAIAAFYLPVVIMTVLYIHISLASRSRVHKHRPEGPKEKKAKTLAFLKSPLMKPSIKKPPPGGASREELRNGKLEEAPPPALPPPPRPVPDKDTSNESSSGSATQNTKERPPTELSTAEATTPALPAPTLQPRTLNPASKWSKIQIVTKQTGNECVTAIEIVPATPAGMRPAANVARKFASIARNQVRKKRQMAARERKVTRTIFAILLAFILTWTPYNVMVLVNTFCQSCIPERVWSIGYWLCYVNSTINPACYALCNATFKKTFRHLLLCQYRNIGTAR
Procedure: Human or rat M4 cDNA, along with the chimeric G protein Gqi5, were transfected into Chinese hamster ovary (CHO-K1) cells purchased from the American Type Culture Collection using Lipofectamine2000. M4/Gqi5/CHO cells were grown in Ham's F-12 medium containing 10% heat-inactivated fetal bovine serum (FBS), 20 mM HEPES, 500 μg/mL G418 sulfate, and 200 μg/mL Hygromycin B.
For high throughput measurement of agonist-evoked increases in intracellular calcium, CHO-K1 cells stably expressing muscarinic receptors were plated in growth medium lacking G418 and hygromycin at 15,000 cells/20 μL/well in Greiner 384-well black-walled, tissue culture (TC)-treated, clear-bottom plates (VWR). Cells were incubated overnight at 37° C. and 5% CO2. The next day, cells were washed using an ELX 405 (BioTek) with assay buffer; the final volume was then aspirated to 20 μL. Next, 20 μL of a 2.3 μM stock of Fluo-4/acetoxymethyl ester (Invitrogen, Carlsbad, CA), prepared as a 2.3 mM stock in DMSO and mixed in a 1:1 ratio with 10% (w/v) Pluronic F-127 and diluted in assay buffer, was added to the wells and the cell plates were incubated for 50 min at 37° C. and 5% CO2. Dye was removed by washing with the ELX 405 and the final volume was aspirated to 20 μL. Compound master plates were formatted in a 10 point concentration-response curve (CRC) format (1:3 dilutions) in 100% DMSO with a starting concentration of 10 or 1 mM using a BRAVO liquid handler (Agilent). Test compound CRCs were then transferred to daughter plates (240 nL) using the Echo acoustic plate reformatter (Labcyte, Sunnyvale, CA) and then diluted into assay buffer (40 μL) to a 2× stock using a Thermo Fisher Combi (Thermo Fisher Scientific, Waltham, MA).
Calcium flux was measured using the Functional Drug Screening System (FDSS) 6000 or 7000 (Hamamatsu Corporation, Tokyo, Japan) as an increase in the fluorescent static ratio. Compounds were applied to cells (20 μL, 2×) using the automated system of the FDSS at 2 seconds into the protocol and the data were collected at 1 Hz. At 143 s, 10 μL of an EC20 concentration of the muscarinic receptor agonist acetylcholine was added (5×), followed by the addition of 12 μL of an EC80 concentration of acetylcholine at the 268 s time point (5×). Agonist activity was analyzed as a concentration-dependent increase in calcium mobilization upon compound addition. Positive allosteric modulator activity was analyzed as a concentration-dependent increase in the EC20 acetylcholine response. Antagonist activity was analyzed as a concentration-dependent decrease in the EC80 acetylcholine response; for the purposes of the tables herein, an IC50 (inhibitory concentration 50) was calculated as a concentration-dependent decrease of the response elicited by an EC80 concentration of acetylcholine. Concentration-response curves were generated using a four-parameter logistical equation in XLFit curve fitting software (IDBS, Bridgewater, NJ) for Excel (Microsoft, Redmond, WA) or Prism (GraphPad Software, Inc., San Diego, CA) or the Dotmatics software platform (Dotmatics, Bishop's Stortford, UK).

human mAChR M4 = biological target: T2, human mAChR M4 (Homo sapiens, UniProt P08173); experiment: mAChR M4 cell-based functional assay (calcium mobilization, EC80 acetylcholine), human M4; details: for IC50: M4/Gqi5/CHO-K1 cells, decrease of EC80 acetylcholine response
T2 construct: expressed in transfected cells; host or cells: CHO-K1 (ATCC), stably co-expressing chimeric G protein Gqi5
T2 sequence (P08173 1-479): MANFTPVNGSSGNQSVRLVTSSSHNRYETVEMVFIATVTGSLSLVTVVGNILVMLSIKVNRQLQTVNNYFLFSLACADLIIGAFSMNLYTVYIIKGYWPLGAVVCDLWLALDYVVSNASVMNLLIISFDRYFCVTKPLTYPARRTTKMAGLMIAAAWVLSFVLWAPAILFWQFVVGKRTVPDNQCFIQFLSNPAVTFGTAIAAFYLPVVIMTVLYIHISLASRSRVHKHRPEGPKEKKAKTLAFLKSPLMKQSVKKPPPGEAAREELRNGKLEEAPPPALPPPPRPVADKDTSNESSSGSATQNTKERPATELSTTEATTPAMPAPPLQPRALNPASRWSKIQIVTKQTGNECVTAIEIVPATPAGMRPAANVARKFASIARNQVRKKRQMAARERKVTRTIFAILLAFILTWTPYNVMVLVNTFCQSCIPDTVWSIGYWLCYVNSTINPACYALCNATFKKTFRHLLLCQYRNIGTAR
How it was run: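 CHO-K1 cells stably expressing human M4 with chimeric Gqi5; intracellular calcium rise read on FDSS as fluorescence static ratio at 1 Hz. Compounds in 10-point 1:3 dilution series; IC50 taken as concentration-dependent decrease of the EC80 acetylcholine response, four-parameter logistic fit.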

Row | Compound | Rat M4 Emin (rat mAChR M4) [%] | IC50 (rat mAChR M4) [nM] | Human M4 Emin (human mAChR M4; Table 10) [%] | IC50 (human mAChR M4; Table 10) [nM] | IC50 (human mAChR M4; Table 9) [nM] | Emin (human mAChR M4; Table 9, human M4, % ACh maximum at 30 μM) [%]
1 | CC(=O)Nc1ccc(-c2ccc(O[C@H]3C[C@@H]4CN(CCC(C)(C)C)C[C@@H]4C3)nn2)cc1 [Compound 129, N-[4-[6-[[(3aR,5s,6aS)-2-(3,3-dimethylbutyl)-3,3a,4,5,6,6a-hexahydro-1H-cyclopenta[c]pyrrol-5-yl]oxy]pyridazin-3-yl]phenyl]acetamide] | 4 | 195 | 4 | 91.2 |  | 
2 | CC(C)(C)CCN1C[C@H]2C[C@H](Oc3ccc(-c4cc(F)ccc4Cl)nn3)C[C@H]2C1 [Compound 137, (3aR,5s,6aS)-5-[6-(2-chloro-5-fluoro-phenyl)pyridazin-3-yl]oxy-2-(3,3-dimethylbutyl)-3,3a,4,5,6,6a-hexahydro-1H-cyclopenta[c]pyrrole] | 3 | 313 | 3 | 19.8 |  | 
3 | CC(=O)Nc1ccc(-c2ccc(N[C@H]3C[C@@H]4CN(CCC(C)(C)C)C[C@@H]4C3)nn2)cc1 [Compound 140, N-[4-[6-[[(3aR,5s,6aS)-2-(3,3-dimethylbutyl)-3,3a,4,5,6,6a-hexahydro-1H-cyclopenta[c]pyrrol-5-yl]amino]pyridazin-3-yl]phenyl]acetamide] | 3 | 17.1 | 5 | 1.08 |  | 
4 | CC(C)(C)CCN1C[C@H]2C[C@H](Oc3ccc(Cl)nn3)C[C@H]2C1 [Compound 128, (3aR,5s,6aS)-5-(6-chloropyridazin-3-yl)oxy-2-(3,3-dimethylbutyl)-3,3a,4,5,6,6a-hexahydro-1H-cyclopenta[c]pyrrole] | 17 | 6330 | 5 | 1090 |  | 
5 | CC(C)(C)CCN1C[C@H]2C[C@H](Nc3ccc(-c4ccc(F)cc4Cl)nn3)C[C@H]2C1 [Compound 141, (3aR,5s,6aS)-N-[6-(2-chloro-4-fluoro-phenyl)pyridazin-3-yl]-2-(3,3-dimethylbutyl)-3,3a,4,5,6,6a-hexahydro-1H-cyclopenta[c]pyrrol-5-amine] | 3 | 138 | 4 | 14.8 |  | 
6 | Cc1nn(C)cc1-c1ccc(N[C@@H]2C[C@@H]3CN(CC45CC6CC(CC(C6)C4)C5)C[C@@H]3C2)c(F)c1F [Compound 45, (3aR,5r,6aS)-2-(1-adamantylmethyl)-N-[4-(1,3-dimethylpyrazol-4-yl)-2,3-difluoro-phenyl]-3,3a,4,5,6,6a-hexahydro-1H-cyclopenta[c]pyrrol-5-amine] |  |  |  |  | 6590 | 12.0
7 | CC1(C)CC(CN2C[C@H]3C[C@H](Nc4ccc(-c5cc(F)ccc5Cl)nn4)C[C@H]3C2)CCO1 (stereo partly drawn) [Compound 173, (3aR,5s,6aS)-N-[6-(2-chloro-5-fluoro-phenyl)pyridazin-3-yl]-2-[(2,2-dimethyltetrahydropyran-4-yl)methyl]-3,3a,4,5,6,6a-hexahydro-1H-cyclopenta[c]pyrrol-5-amine] |  |  | 3 | 3.32 |  | 

The next lines start with the values.

Row | Rat M4 Emin (rat mAChR M4) [%] | IC50 (rat mAChR M4) [nM] | Human M4 Emin (human mAChR M4; Table 10) [%] | IC50 (human mAChR M4; Table 10) [nM] | IC50 (human mAChR M4; Table 9) [nM] | Emin (human mAChR M4; Table 9, human M4, % ACh maximum at 30 μM) [%] | Compound
8 | 6 | 63.6 | 3 | 5 |  |  | COc1ccc(-c2ccc(N[C@H]3C[C@@H]4CN(CC5CCOCC5)C[C@@H]4C3)nn2)cc1F [Compound 222, (3aR,5s,6aS)-N-[6-(3-fluoro-4-methoxy-phenyl)pyridazin-3-yl]-2-(tetrahydropyran-4-ylmethyl)-3,3a,4,5,6,6a-hexahydro-1H-cyclopenta[c]pyrrol-5-amine]
9 | 6 | 995 | 6 | 648 |  |  | CC(=O)Nc1ccc(-c2ccc(O[C@H]3C[C@@H]4CN(CC5CCOCC5)C[C@@H]4C3)nn2)cc1 [Compound 132, N-[4-[6-[[(3aR,5s,6aS)-2-(tetrahydropyran-4-ylmethyl)-3,3a,4,5,6,6a-hexahydro-1H-cyclopenta[c]pyrrol-5-yl]oxy]pyridazin-3-yl]phenyl]acetamide]
10 | 14 | 605 | 6 | 22 |  |  | c1csc(-c2ccc(N[C@H]3C[C@@H]4CN(CC5CCOCC5)C[C@@H]4C3)nn2)c1 [Compound 226, (3aR,5s,6aS)-2-(tetrahydropyran-4-ylmethyl)-N-[6-(2-thienyl)pyridazin-3-yl]-3,3a,4,5,6,6a-hexahydro-1H-cyclopenta[c]pyrrol-5-amine]
11 | 8 | 490 | 4 | 5.32 |  |  | c1cc(C2CC2)ncc1-c1ccc(N[C@H]2C[C@@H]3CN(CC4CCOCC4)C[C@@H]3C2)nn1 [Compound 232, (3aR,5s,6aS)-N-[6-(6-cyclopropyl-3-pyridyl)pyridazin-3-yl]-2-(tetrahydropyran-4-ylmethyl)-3,3a,4,5,6,6a-hexahydro-1H-cyclopenta[c]pyrrol-5-amine]
12 | 13 | 2230 | 5 | 8.4 |  |  | c1cc(-c2ccc(N[C@H]3C[C@@H]4CN(CC5CCOCC5)C[C@@H]4C3)nn2)cs1 [Compound 227, (3aR,5s,6aS)-2-(tetrahydropyran-4-ylmethyl)-N-[6-(3-thienyl)pyridazin-3-yl]-3,3a,4,5,6,6a-hexahydro-1H-cyclopenta[c]pyrrol-5-amine]
13 | 6 | 121 | 3 | 6.39 |  |  | FC(F)Oc1ccc(-c2ccc(N[C@H]3C[C@@H]4CN(CC5CCOCC5)C[C@@H]4C3)nn2)cc1 [Compound 223, (3aR,5s,6aS)-N-[6-[4-(difluoromethoxy)phenyl]pyridazin-3-yl]-2-(tetrahydropyran-4-ylmethyl)-3,3a,4,5,6,6a-hexahydro-1H-cyclopenta[c]pyrrol-5-amine]
14 |  |  | 7 | 3.54 |  |  | COc1ccc(-c2ccc(N[C@H]3C[C@@H]4CN(CC5CCOCC5)C[C@@H]4C3)nn2)cc1 [Compound 201, (3aR,5s,6aS)-N-[6-(4-methoxyphenyl)pyridazin-3-yl]-2-(tetrahydropyran-4-ylmethyl)-3,3a,4,5,6,6a-hexahydro-1H-cyclopenta[c]pyrrol-5-amine]
